What was measured:
Type in all cases: binding
[1] = target: MpLBD, recombinant M. persicae ecdysone receptor (Myzus persicae, UniProt A3EZJ9); assay: manual radioligand-based competitive inhibition assay ([3H]ponasterone A), MpLBD; conditions: for ability to compete with [3H]ponasterone A / bind to MpLBD (in words): radioligand-based assay
Experimental: The ability of inokosterone and fluorescent conjugates thereof to bind to recombinant M. persicae ecdysone receptor was assessed using the conventional radioligand binding assay in a competetive inhibition format (adapted from Koelle et al., 1991).
These procedures were performed manually, as follows. Assays were performed in EcR40 buffer [25 mM Hepes, 40 mM KCl, 10% glycerol, 1 mM sodium EDTA, 3 mM sodium azide] containing 0.5 mg/ml bovine serum albumin (BSA). An extract containing recombinant M. persicae edcdysone receptor, MpLBD, was prepared as described above and diluted in EcR40 buffer containing 0.5 mg/ml BSA to a concentration that generated filter counts around 10 000 cpm when the assay was done in the absence of competing ligands. […] Assays were set up to contain different final concentrations of fluorescent ecdysteroid by including the appropriate volumes of the relevant stock solutions. […] Each incubation was performed in a final volume of […] at room temperature (22° C.) for 90 min, whereupon it was held on ice until the filter adsorption/wash steps could be performed. Three 140 μl aliquots from each completed incubation were applied to glass microfibre filters (GF/C 24 mm diameter, Whatman, Cat. No. 1822024); i.e., every incubation generated three filters, each of which had been wet using 140 μl of the incubation mixture. After exposure to the liquid for 30 sec at room temperature, the wet filter was transferred to a vacuum sinter apparatus (Pyrex Filter Holder, Millipore Corp., Cat. No. XX1002500) and washed rapidly. Washing was done using 2×5 ml of ice-cold EcR40 buffer, intersperced with 3×0.5 ml buffer applied around the circumference of the filter to ensure that its edges were thoroughly rinsed. The damp filter was then transferred to a scintillation vial. When all the filters had been thus processed, 7 ml Packard InstaGel Plus scintillant was added to each scintillation vial. The sealed vials were vortexed and then incubated at room temperature for at least 2 h, during which time the filters became transparent. The vials were then scintillation counted (1 min per filter, tritium program, Packard TriCarb 2100TR scintillation counter). Datapoints were reported as the mean cpm value ±SEM for the three replicate filters arising from each incubation.
The inhibitor concentration at this midpoint was deemed to be the IC50 value for the inhibitor.

[2] = target: T1, BtLBD (Bemisia tabaci, UniProt A0A142K0N3); assay: FP competitive inhibition assay with MB4628 tracer, BtLBD; conditions: 6 nM functional BtLBD, 36 nM MB4628, 2 mM CHAPS, Cheng-Prusoff; read-out: FP-derived Ki, BtLBD
Experimental: (§1) For competitive inhibition assays, each well contained standard FP assay buffer containing 36 nM MB4628 and either 5 nM functional MpLBD or 6 nM functional BtLBD. The BtLBD assays, but not the MpLBD ones, were routinely done in the presence of 2 mM CHAPS. The final volume of all assays were 250 μl.
(§2) The inhibitor concentration at this midpoint was deemed to be the IC50 value for the inhibitor. IC50 values were converted to Ki values using the Cheng-Prusoff equation (Cheng & Prusoff, 1973), as follows: Ki=IC50/(1+([MB4628]tot/Kd)) where [MB-4628]tot is the total concentration of MB4628 in the assay, and Kd is the dissociation constant for MB4628 with the relevant receptor under the conditions of the assay. The Kd values for use in this equation were calculated from the basic FP titration curves (FIG. 3) using the knowledge that the receptor concentration at the titration midpoint is the value at which the receptor is half-saturated with MB4628. The Kd is the free MB4628 concentration at this point, and must therefore be: Kd=[MB4628]tot−([receptor]midpoint)/2

[3] = target: T2, MpLBD (Myzus persicae, UniProt A3EZJ9); assay: FP competitive inhibition assay with MB4628 tracer, MpLBD; conditions: 5 nM functional MpLBD, 36 nM MB4628, no CHAPS, Cheng-Prusoff; read-out: FP-derived Ki, MpLBD
T2 sequence (A3EZJ9 70-308): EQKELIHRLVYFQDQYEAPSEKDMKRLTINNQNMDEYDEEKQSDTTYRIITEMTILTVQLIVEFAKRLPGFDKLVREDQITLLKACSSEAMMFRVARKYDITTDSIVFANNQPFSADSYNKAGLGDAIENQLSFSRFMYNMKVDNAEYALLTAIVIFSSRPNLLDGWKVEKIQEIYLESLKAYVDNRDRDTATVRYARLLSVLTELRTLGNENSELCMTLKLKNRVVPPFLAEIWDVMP
T2 sequence (A3EZK0 32-259 partner): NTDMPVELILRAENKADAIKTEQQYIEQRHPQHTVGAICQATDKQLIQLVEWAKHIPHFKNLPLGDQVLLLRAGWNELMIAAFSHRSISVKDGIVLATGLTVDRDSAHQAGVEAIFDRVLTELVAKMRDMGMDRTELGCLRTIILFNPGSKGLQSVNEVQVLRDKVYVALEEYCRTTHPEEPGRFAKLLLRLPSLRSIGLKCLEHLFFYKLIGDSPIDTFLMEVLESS
Experimental: as §1, §2

[4] = target: T1, BtLBD; assay: miniaturized automated radioligand-based competition assay, BtLBD; conditions: 1.3 nM [3H]ponasterone A, no CHAPS, read-out: Ki from radioligand-based BtLBD assay
Experimental: (§3) Subsequently, a miniaturized and automated version of the radioligand-based competition assay was used with MpLBD and BtLBD to obtain Ki values for the non-radioactive, non-fluorescent ecdysteroids that would later be used to validate the competitive inhibition format of the FP assay. While the concept of the assay was unchanged from that described above, some aspects of its execution were different. […] The mixtures were again allowed to reach equilibrium, but this time for 4 h at room temperature. The MpLBD was then captured on a 96-filter array (Unifilter-96 GF/C, Packard, Cat. No. 6005174) and rinsed using the wash tool and vacuum block of the Biomek 2000. The back of each filter-plate was then manually sealed using a sheet of Packard BackSeal, and 25 μl Packard MicroScint-20 scintillation fluid was dispensed into each well. The top of each plate was sealed with Packard TopSeal-A and the filters were allowed to solvate overnight. […] Since the amount of bound radioactivity was at most 28% of the total present, no additional corrections for ligand depletion were applied.

[5] = target: T2, MpLBD; assay: miniaturized automated radioligand-based competition assay, MpLBD; conditions: 1.3 nM [3H]ponasterone A, no CHAPS, read-out: Ki from radioligand-based MpLBD assay
Experimental: as §3

Row | Compound | Ki [1] | ability to compete with [3H]ponasterone A / bind to MpLBD (in words) [1] | Ki [2] | Ki [3] | Ki [4] | Ki [5]
1 | CCN(CC)c1ccc2cc(NC(=O)OCC(C)CCC(O)C(C)(O)C3CCC4(O)C5=CC(=O)C6CC(O)C(O)CC6(C)C5CCC34C)c(=O)oc2c1 (stereo not drawn) [MB4592] | 20 nM | unimpaired | – | – | – | –
2 | COc1ccc2cc(NC(=O)OCC(C)CC[C@@H](O)C(C)(O)C3CC[C@@]4(O)C5=CC(=O)[C@@H]6C[C@@H](O)[C@@H](O)CC6(C)C5CCC34C)c(=O)oc2c1 (stereo partly drawn) [MB4603] | 40 nM | unimpaired | – | – | – | –
3 | 2β,3β,14α,20R,22R,25-hexahydroxy-5β-cholest-7-ene-6-one [20-hydroxyecdysone] | – | – | 994 nM | 1490 nM | 240 nM | 100 nM
4 | CC(C)CC[C@@H](O)[C@](C)(O)[C@H]1CC[C@@]2(O)C3=CC(=O)[C@]4(O)C[C@@H](O)[C@@H](O)C[C@]4(C)[C@H]3[C@H](O)C[C@]12C [muristerone A] | – | – | 27 nM | 149 nM | 5.3 nM | 30 nM
